Experimental data taken from US20160102073A1, “2-HYDROXYMETHYL-SUBSTITUTED OREXIN RECEPTOR ANTAGONISTS” (MERCK SHARP & DOHME CORP., priority 2013, published 2016).

Key:
[1] = target: T1, human orexin-1 receptor (hOX1R) (Homo sapiens, UniProt O43613); experiment: FLIPR Ca2+ Flux Assay, CHO cells expressing hOX1R; format: cell-based; details: agonist 70 pM Ala-6,12 orexin-A
T1 construct: expressed in transfected cells; host or cells: Chinese hamster ovary (CHO) cells, grown under G418 selection
T1 sequence (O43613 1-425): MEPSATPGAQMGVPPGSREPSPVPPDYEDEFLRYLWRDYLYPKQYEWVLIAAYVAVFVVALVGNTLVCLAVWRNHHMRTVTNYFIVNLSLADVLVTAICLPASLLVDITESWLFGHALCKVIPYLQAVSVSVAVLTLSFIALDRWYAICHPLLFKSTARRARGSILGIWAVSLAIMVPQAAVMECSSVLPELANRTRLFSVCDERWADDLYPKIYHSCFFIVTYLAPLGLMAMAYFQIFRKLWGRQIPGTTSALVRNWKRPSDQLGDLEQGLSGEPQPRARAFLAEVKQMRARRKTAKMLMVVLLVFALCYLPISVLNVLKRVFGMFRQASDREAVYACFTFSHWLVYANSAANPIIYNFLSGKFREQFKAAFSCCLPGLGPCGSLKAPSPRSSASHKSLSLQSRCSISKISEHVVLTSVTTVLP
Description: (§1) Chinese hamster ovary (CHO) cells expressing the human orexin-1 receptor (hOX1R) or the human orexin-2 receptor (hOX2R) were grown in Iscove's modified DMEM containing 2 mM L-glutamine, […], 1% hypoxanthine-thymidine supplement, 100 U/ml penicillin, 100 μg/ml streptomycin and 10% heat-inactivated fetal calf serum (FCS). The cells were seeded at 20,000 cells/well into Becton-Dickinson black 384-well clear bottom sterile plates coated with poly-D-lysine. All reagents were from GIBCO-Invitrogen Corp. The seeded plates were incubated overnight at 37° C. and 5% CO2. Ala-6,12 human orexin-A, used as the agonist, was prepared as a 1 mM stock solution in 1% bovine serum albumin (BSA) and diluted in assay buffer (HBSS containing 20 mM HEPES, 0.1% BSA and 2.5 mM probenecid, pH7.4) for use in the assay at a final concentration of 70 pM. Test compounds were prepared as 10 mM stock solution in DMSO, then diluted in 384-well plates, first in DMSO, then assay buffer.
On the day of the assay, cells were washed 3× with 100 μl assay buffer and then incubated for 60 minutes (37° C., 5% CO2) in 60 μl assay buffer containing 1 μM Fluo-4AM ester, 0.02% pluronic acid, and 1% BSA. The dye loading solution was then aspirated and cells were washed 3× with 100 μl assay buffer. 30 μl of that same buffer was left in each well. Within the Fluorescent Imaging Plate Reader (FLIPR, Molecular Devices), test compounds were added to the plate in a volume of 25 μl, incubated for 5 minutes, and then 25 μl of agonist was added. Fluorescence was measured for each well at 1 second intervals for 5 minutes, and the height of each fluorescence peak was compared to the height of the fluorescence peak induced by 70 pM of Ala-6,12 orexin-A with buffer in place of test compound.

[2] = target: T2, human orexin-2 receptor (hOX2R) (Homo sapiens, UniProt O43614); experiment: FLIPR Ca2+ Flux Assay, CHO cells expressing hOX2R; format: cell-based; details: agonist 70 pM Ala-6,12 orexin-A
T2 construct: expressed in transfected cells; host or cells: Chinese hamster ovary (CHO) cells, grown under G418 selection
T2 sequence (O43614 1-444): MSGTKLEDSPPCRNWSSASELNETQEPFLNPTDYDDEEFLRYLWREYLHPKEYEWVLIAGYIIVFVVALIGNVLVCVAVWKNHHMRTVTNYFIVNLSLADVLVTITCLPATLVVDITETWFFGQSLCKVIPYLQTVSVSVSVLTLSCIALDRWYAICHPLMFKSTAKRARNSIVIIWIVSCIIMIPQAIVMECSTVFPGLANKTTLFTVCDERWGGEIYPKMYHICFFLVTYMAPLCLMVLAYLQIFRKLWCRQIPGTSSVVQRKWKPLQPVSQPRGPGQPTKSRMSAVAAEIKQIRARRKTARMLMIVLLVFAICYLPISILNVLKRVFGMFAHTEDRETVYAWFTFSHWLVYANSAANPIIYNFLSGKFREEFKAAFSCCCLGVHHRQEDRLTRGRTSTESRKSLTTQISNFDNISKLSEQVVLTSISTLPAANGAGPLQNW
Description: The utility of the compounds in accordance with the present invention as orexin receptor OX1R and/or OX2R antagonists may be readily determined without undue experimentation by methodology well known in the art, including the “FLIPR Ca^2+ Flux Assay” (Okumura et al., Biochem. Biophys. Res. Comm. 280:976-981, 2001). In a typical experiment the OX1 and OX2 receptor antagonistic activity of the compounds of the present invention was determined in accordance with the following experimental method. For intracellular calcium measurements, Chinese hamster ovary (CHO) cells expressing the rat orexin-1 receptor or the human orexin-2 receptor, are grown in Iscove's modified DMEM containing 2 mM L-glutamine, […], 1% hypoxanthine-thymidine supplement, 100 U/ml penicillin, 100 μg/ml streptomycin and 10% heat-inactivated fetal calf serum (FCS). The cells are seeded at 20,000 cells/well into Becton-Dickinson black 384-well clear bottom sterile plates coated with poly-D-lysine. All reagents were from GIBCO-Invitrogen Corp. The seeded plates are incubated overnight at 37° C. and 5% CO2. Ala-6,12 human orexin-A as the agonist is prepared as a 1 mM stock solution in 1% bovine serum albumin (BSA) and diluted in assay buffer (HBSS containing 20 mM HEPES, 0.1% BSA and 2.5 mM probenecid, pH7.4) for use in the assay at a final concentration of 70 pM. Test compounds are prepared as 10 mM stock solution in DMSO, then diluted in 384-well plates, first in DMSO, then assay buffer. On the day of the assay, cells are washed 3 times with 100 μl assay buffer and then incubated for 60 min (37° C., 5% CO2) in 60 μl assay buffer containing 1 μM Fluo-4AM ester, 0.02% pluronic acid, and 1% BSA. The dye loading solution is then aspirated and cells are washed 3 times with 100 μl assay buffer. 30 μl of that same buffer is left in each well. Within the Fluorescent Imaging Plate Reader (FLIPR, Molecular Devices), test compounds are added to the plate in a volume of 25 μl, incubated for 5 min and finally 25 μl of agonist is added. Fluorescence is measured for each well at 1 second intervals for 5 minutes and the height of each fluorescence peak is compared to the height of the fluorescence peak induced by 70 pM Ala-6,12 orexin-A with buffer in place of antagonist. For each antagonist, IC50 value (the concentration of compound needed to inhibit 50% of the agonist response) is determined. Alternatively, compound potency can be assessed by a radioligand binding assay (described in Bergman et. al. Bioorg. Med. Chem. Lett. 2008, 18, 1425-1430) in which the inhibition constant (Ki) is determined in membranes prepared from CHO cells expressing either the OX1 or OX2 receptor. The intrinsic orexin receptor antagonist activity of a compound which may be used in the present invention may be determined by these assays.
as §1, with “buffer. […]” for “buffer.”

Compound	IC50 [1]	IC50 [2]
COc1ccc(C(=O)N2C[C@H](Oc3ncccc3C(C)(C)O)CC[C@H]2C)c(C2CC2)c1 [Example 15, 2-[2-({(3R,6R)-1-[(2-cyclopropyl-4-methoxyphenyl)carbonyl]-6-methylpiperidin-3-yl}oxy)pyridin-3-yl]propan-2-ol]	2300 nM	148 nM
C[C@@H]1CC[C@@H](Oc2ncccc2C(C)(C)O)CN1C(=O)c1cc(C#N)ccc1-n1nccn1 [Example 7, 3-{[(2R,5R)-5-{[3-(1-hydroxy-1-methylethyl)pyridin-2-yl]oxy}-2-methylpiperidin-1-yl]carbonyl}-4-(2H-1,2,3-triazol-2-yl)benzonitrile]	418 nM	88 nM
C[C@@H]1CC[C@@H](Oc2ncccc2C(C)(C)O)CN1C(=O)c1cccc(F)c1-n1nccn1 [Example 3, 2-(2-{[(3R,6R)-1-{[3-fluoro-2-(2H-1,2,3-triazol-2-yl)phenyl]carbonyl}-6-methylpiperidin-3-yl]oxy}pyridin-3-yl)propan-2-ol]	189 nM	35 nM
CC(C)c1ccnc(O[C@@H]2CC[C@@H](C)N(C(=O)c3ccccc3-n3nccn3)C2)c1CO [Example 43, [4-(1-methylethyl)-2-{[(3R,6R)-6-methyl-1-{[2-(2H-1,2,3-triazol-2-yl)phenyl]carbonyl}piperidin-3-yl]oxy}pyridin-3-yl]methanol]	80 nM	23 nM
C[C@@H]1CC[C@@H](Oc2ncccc2C(C)(C)O)CN1C(=O)c1sccc1-n1nccn1 [Example 11, 2-(2-{[(3R,6R)-6-methyl-1-{[3-(2H-1,2,3-triazol-2-yl)thiophen-2-yl]carbonyl}piperidin-3-yl]oxy}pyridin-3-yl)propan-2-ol]	148 nM	41 nM
C[C@@H]1CC[C@@H](Oc2ncccc2[C@@H](C)O)CN1C(=O)c1ccccc1-n1nccn1 [Example 29, (1R)-1-(2-{[(3R,6R)-6-Methyl-1-{[2-(2H-1,2,3-triazol-2-yl)phenyl]carbonyl}piperidin-3-yl]oxy}pyridin-3-yl)ethanol]	1160 nM	49 nM
C[C@@H]1CC[C@@H](Oc2ncccc2C(C)(C)O)CN1C(=O)c1cc(Cl)ccc1-n1nccn1 [Example 6, 2-(2-{[(3R,6R)-1-{[5-chloro-2-(2H-1,2,3-triazol-2-yl)phenyl]carbonyl}-6-methylpiperidin-3-yl]oxy}pyridin-3-yl)propan-2-ol]	141 nM	66 nM
COc1ccnc(O[C@@H]2CC[C@@H](C)N(C(=O)c3ccccc3-n3nccn3)C2)c1CO [Example 46, (4-Methoxy-2-{[(3R,6R)-6-methyl-1-{[2-(2H-1,2,3-triazol-2-yl)phenyl]carbonyl}piperidin-3-yl]oxy}pyridin-3-yl)methanol]	1170 nM	34 nM
C[C@@H]1CC[C@@H](Oc2ncccc2C(C)(C)O)CN1C(=O)c1ccccc1-c1ncccn1 [Example 23, 2-[2-({(3R,6R)-6-methyl-1-[(2-pyrimidin-2-ylphenyl)carbonyl]piperidin-3-yl}oxy)pyridin-3-yl] propan-2-ol]	95 nM	69 nM

Further molecules by falling IC50 [1], results first:

IC50 [1]	IC50 [2]	Compound
10000 nM	588 nM	COc1ccc(C(=O)N2C[C@H](Oc3ncccc3CO)CC[C@H]2C)c(-n2nccn2)n1 [Example 49, (2-{[(3R,6R)-1-{[6-Methoxy-2-(2H-1,2,3-triazol-2-yl)pyridin-3-yl]carbonyl}-6-methylpiperidin-3-yl]oxy}pyridin-3-yl)methanol]
188 nM	110 nM	CC(O)c1c(C(F)(F)F)ccnc1O[C@@H]1CC[C@@H](C)N(C(=O)c2ccccc2-n2nccn2)C1 (stereo partly drawn) [Example 38, 1-[2-{[(3R,6R)-6-Methyl-1-{[2-(2H-1,2,3-triazol-2-yl)phenyl]carbonyl}piperidin-3-yl]oxy}-4-(trifluoromethyl)pyridin-3-yl]ethanol]
140 nM	82 nM	C[C@@H]1CC[C@@H](Oc2ncccc2C(C)(C)O)CN1C(=O)c1cc(F)ccc1-c1ncccn1 [Example 22, 2-[2-({(3R,6R)-1-[(5-fluoro-2-pyrimidin-2-yl-phenyl)carbonyl]-6-methylpiperidin-3-yl}oxy)pyridin-3-yl]propan-2-ol]
121 nM	34 nM	C[C@@H]1CC[C@@H](Oc2ncccc2C(C)(C)O)CN1C(=O)c1cc(F)ccc1-n1nccn1 [Example 5, 2-(2-{[(3R,6R)-1-{[5-fluoro-2-(2H-1,2,3-triazol-2-yl)phenyl]carbonyl}-6-methylpiperidin-3-yl]oxy}pyridin-3-yl)propan-2-ol]
55 nM	18 nM	C[C@@H]1CC[C@@H](Oc2ncccc2[C@@H](O)C(F)(F)F)CN1C(=O)c1ccccc1-n1nccn1 [Example 37, (1R)-2,2,2-Trifluoro-1-(2-{[(3R,6R)-6-methyl-1-{[2-(2H-1,2,3-triazol-2-yl)phenyl]carbonyl}piperidin-3-yl]oxy}pyridin-3-yl)ethanol]
